Earlier results in US6107305A, “Use of pyrazolo [3,4-b] pyridine as cyclin dependent kinase inhibitors” (Bristol-Myers Squibb Company, priority 1998, dated 2000).

What was measured:
[1] = test system: cytotoxic activity
[2] = test system: apoptosis; details: J. Cell Sci., 108, 2897 (1995)

SMILES | effect of sequence of administration with anticancer agents on cytotoxic activity [1] | synergism with known cytotoxic agents in inducing apoptosis [2]
CN1CC[C@H](c2c(O)cc(O)c3c(=O)cc(-c4ccccc4Cl)oc23)[C@H](O)C1 [flavopiridol] | affected by the sequence of administration with anticancer agents | 
Cn1cnc2c(NCc3ccccc3)nc(NCCO)nc21 [olomucine] |  | act synergistically with known cytotoxic agents in inducing apoptosis
